Common to all, as to type: in vivo
In one test the test system is Stellaria media. The test can be described thus: Herbicidal screen, post-emergence spray of seedlings in pots: Chickweed. Conditions: Stellaria media, post-emergence, 240 h, assessed 10 days after treatment, read-out: percentage increase in necrosis relative to the control. The method, then: (§1) Compounds were screened at four concentrations (100, 50, 25 and 12.5 g/ha) against four weed species (Stellaria media—Chickweed; Abutilon theophrasti—velvetleaf; Amaranthus retroflexus—common amaranthus; Echinochloa crus-galli—Barnyard grass) and maize as a crop species. Seed were sown in 12.5 cm diameter pots (20 per pot for the weed species and 5 for maize). Seedlings were sprayed with 2 ml of compound two weeks after sowing, with 2 ml water used as the control. Each treatment was replicated three times. Plants were maintained at 20° C. and assessed 10 days after treatment. The assessment was based on the % plant in each pot showing growth. The data is presented in Table 1 in which d represents no detected effect at this concentration; c represents a percentage increase in necrosis relative to the control of 0.1-50; b represents a percentage increase in necrosis of 50-80; and a represents a percentage increase in necrosis of 80-100.

The next test relates to Abutilon theophrasti. The test can be described thus: Herbicidal screen, post-emergence spray of seedlings in pots: velvetleaf. Conditions: Abutilon theophrasti, post-emergence, 240 h, assessed 10 days after treatment, read-out: percentage increase in necrosis relative to the control. The method, then:
as §1

A further test concerns Amaranthus retroflexus. Put plainly: Herbicidal screen, post-emergence spray of seedlings in pots: common amaranthus. Conditions: Amaranthus retroflexus, post-emergence, 240 h, assessed 10 days after treatment, read-out: percentage increase in necrosis relative to the control. As for the experimental part: as §1
The next test has as its system Echinochloa crus-galli. The test can be described thus: Herbicidal screen, post-emergence spray of seedlings in pots: Barnyard grass. Particulars: Echinochloa crus-galli, post-emergence, 240 h, assessed 10 days after treatment, read-out: percentage increase in necrosis relative to the control. The method, then: as §1
Another test has as its system maize. Put plainly: Herbicidal screen, post-emergence spray of seedlings in pots: crop species. Particulars: Zea mays, post-emergence, 240 h, assessed 10 days after treatment, read-out: percentage increase in necrosis relative to the control. The method, then: as §1

Each structure is given as a SMILES string. Structures can show the parent of a compound that is named as a salt.

The values that follow come from patent US11634390B2, “Agricultural chemicals” (GLOBACHEM NV, priority 2016, dated 2023).

Consider `Cn1c(C(F)(F)F)cc(=O)n(-c2cc(C(=O)NS(=O)(=O)C3CCOCC3)c(Cl)cc2F)c1=O` [Example 1, 2-Chloro-4-fluoro-5-(3-methyl-2,6-dioxo-4-(trifluoromethyl)-3,6-dihydropyrimidin-1(2H)-yl)-N-((tetrahydro-2H-pyran-4-yl)sulfonyl)benzamide], for which, in the test with Stellaria media, the pest or weed control at 12.5 g/ha lay in the range of 0.1 to 50%, the pest or weed control at 25 g/ha was 0.1 to 50%, the pest or weed control at 50 g/ha lay within 0.1 to 50% and the pest or weed control at 100 g/ha was 0.1 to 50%. In the test on Abutilon theophrasti, the pest or weed control at 12.5 g/ha lay in the range of 0.1 to 50%, the pest or weed control at 25 g/ha fell in the range of 50 to 80%, the pest or weed control at 50 g/ha was in the range of 50 to 80% and the pest or weed control at 100 g/ha fell in the range of 50 to 80%. Besides, in the test on Amaranthus retroflexus, the pest or weed control at 12.5 g/ha lay in the range of 0.1 to 50%, the pest or weed control at 25 g/ha lay within 50 to 80%, the pest or weed control at 50 g/ha was 50 to 80% and the pest or weed control at 100 g/ha was 80 to 100%. Further, in the test on Echinochloa crus-galli, the pest or weed control at 12.5 g/ha is 0.1 to 50%, the pest or weed control at 25 g/ha is 0.1 to 50%, the pest or weed control at 50 g/ha lay in the range of 0.1 to 50% and the pest or weed control at 100 g/ha fell in the range of 0.1 to 50%. Also, in the test with maize, the plant injury at 12.5 g/ha fell in the range of 0.1 to 50%, the plant injury at 25 g/ha lay in the range of 0.1 to 50%, the plant injury at 50 g/ha is 0.1 to 50% and the plant injury at 100 g/ha fell in the range of 0.1 to 50%.
As to `Cn1c(C(F)(F)F)cc(=O)n(-c2cc(C(=O)NS(=O)(=O)C3CCNC3)c(Cl)cc2F)c1=O` (stereo not drawn) [Example 4, 2-Chloro-4-fluoro-5-(3-methyl-2,6-dioxo-4-(trifluoromethyl)-3,6-dihydropyrimidin-1(2H)-yl)-N-(pyrrolidin-3-ylsulfonyl)benzamide hydrochloride], in the test with Stellaria media, the pest or weed control at 12.5 g/ha was 0.1 to 50%, the pest or weed control at 25 g/ha fell in the range of 0.1 to 50%, the pest or weed control at 50 g/ha fell in the range of 0.1 to 50% and the pest or weed control at 100 g/ha lay in the range of 50 to 80%. Further, in the test on Abutilon theophrasti, the pest or weed control at 12.5 g/ha was 0.1 to 50%, the pest or weed control at 25 g/ha was 0.1 to 50%, the pest or weed control at 50 g/ha fell in the range of 0.1 to 50% and the pest or weed control at 100 g/ha lay in the range of 50 to 80%. In the test on Amaranthus retroflexus, the pest or weed control at 12.5 g/ha was 50 to 80%, the pest or weed control at 25 g/ha lay within 50 to 80%, the pest or weed control at 50 g/ha is 80 to 100% and the pest or weed control at 100 g/ha lay within 80 to 100%. In addition, in the test on Echinochloa crus-galli, the pest or weed control at 12.5 g/ha fell in the range of 0.1 to 50%, the pest or weed control at 25 g/ha lay in the range of 0.1 to 50%, the pest or weed control at 50 g/ha was 0.1 to 50% and the pest or weed control at 100 g/ha was 0.1 to 50%. In the test with maize, the plant injury at 12.5 g/ha was in the range of 0.1 to 50%, the plant injury at 25 g/ha was 0.1 to 50%, the plant injury at 50 g/ha fell in the range of 0.1 to 50% and the plant injury at 100 g/ha fell in the range of 0.1 to 50%.
Regarding `Cn1c(C(F)(F)F)cc(=O)n(-c2cc(C(=O)NS(=O)(=O)C3CNC3)c(Cl)cc2F)c1=O` [Example 6, N-(Azetidin-3-ylsulfonyl)-2-chloro-4-fluoro-5-(3-methyl-2,6-dioxo-4-(trifluoromethyl)-3,6-dihydropyrimidin-1(2H)-yl)benzamide hydrochloride], in the test on Stellaria media, the pest or weed control at 12.5 g/ha was 0.1 to 50%, the pest or weed control at 25 g/ha lay within 0.1 to 50%, the pest or weed control at 50 g/ha is 0.1 to 50% and the pest or weed control at 100 g/ha lay in the range of 50 to 80%. In the test on Abutilon theophrasti, the pest or weed control at 12.5 g/ha lay within 0.1 to 50%, the pest or weed control at 25 g/ha fell in the range of 0.1 to 50%, the pest or weed control at 50 g/ha was 50 to 80% and the pest or weed control at 100 g/ha was 50 to 80%. Besides, in the test with Amaranthus retroflexus, the pest or weed control at 12.5 g/ha fell in the range of 50 to 80%, the pest or weed control at 25 g/ha fell in the range of 50 to 80%, the pest or weed control at 50 g/ha was in the range of 80 to 100% and the pest or weed control at 100 g/ha was in the range of 80 to 100%. For the same compound, in the test on Echinochloa crus-galli, the pest or weed control at 12.5 g/ha was in the range of 0.1 to 50%, the pest or weed control at 25 g/ha was 0.1 to 50%, the pest or weed control at 50 g/ha lay in the range of 0.1 to 50% and the pest or weed control at 100 g/ha is 0.1 to 50%. In the test on maize, the plant injury at 12.5 g/ha was in the range of 0.1 to 50%, the plant injury at 25 g/ha lay within 0.1 to 50%, the plant injury at 50 g/ha was in the range of 0.1 to 50% and the plant injury at 100 g/ha is 0.1 to 50%.
